In the supplement of paper PMC6045584:
± gives the standard deviation of the averaged measurements.

How the values were obtained:
CANERTINIB = compound: C=CC(=O)Nc1cc2c(Nc3ccc(F)c(Cl)c3)ncnc2cc1OCCCN1CCOCC1 [CANERTINIB]; test: surviving fraction relative to DMSO-only wells; higher = less growth inhibition; details: exposure time: 5 days
Method in brief: (§1)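 Five days of continuous inhibitor exposure, at 0.5, 1, 5, 10, 50, 100, 500 and 1000 nM, followed a 24-hour period after log-phase tumour cell lines were seeded at 250–500 cells per well in 384-well plates. Surviving fraction was derived from CellTiter-Glo luminescence relative to the median of DMSO-only wells. Plates were read after 10 minutes at room temperature, and lines screened three times were kept only if replicate Pearson r >0.7 and median Z' >0.3.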

[1] = compound: Cn1cc(C2=Nc3cc(NC(=O)C(N)C4CCCCC4)cc4c3C2=CNNC4=O)cn1; test: as above; details: exposure time: 5 days
Method in brief: as §1

Row | Test System | surviving fraction (CANERTINIB; 0.5 nM) | surviving fraction (CANERTINIB; 1 nM) | surviving fraction (CANERTINIB; 5 nM) | surviving fraction (CANERTINIB; 10 nM) | surviving fraction (CANERTINIB; 50 nM) | surviving fraction (CANERTINIB; 100 nM) | surviving fraction (CANERTINIB; 500 nM) | surviving fraction (CANERTINIB; 1000 nM) | surviving fraction ([1]; 0.5 nM) | surviving fraction ([1]; 1 nM) | surviving fraction ([1]; 5 nM) | surviving fraction ([1]; 10 nM) | surviving fraction ([1]; 50 nM) | surviving fraction ([1]; 100 nM) | surviving fraction ([1]; 500 nM) | surviving fraction ([1]; 1000 nM)
1 | H23 LUNG | 0.908 ± 0.038 | 0.86 ± 0.051 | 0.742 ± 0.031 | 0.553 ± 0.032 | 0.403 ± 0.035 | 0.3637 ± 0.0035 | 0.29 ± 0.011 | 0.252 ± 0.014 | 1.05 ± 0.052 | 1.07 ± 0.092 | 1.09 ± 0.046 | 1.074 ± 0.0038 | 1.11 ± 0.1 | 1.1 ± 0.096 | 1.02 ± 0.084 | 0.944 ± 0.031
2 | HCC38 BREAST | 1.01 ± 0.11 | 1.07 ± 0.18 | 1.08 ± 0.24 | 1.05 ± 0.082 | 1.19 ± 0.17 | 1.18 ± 0.12 | 0.948 ± 0.1 | 0.864 ± 0.16 | 1 ± 0.33 | 1.06 ± 0.23 | 0.978 ± 0.3 | 0.92 ± 0.11 | 0.114 ± 0.036 | 0.031 ± 0.0079 | 0.027 ± 0.0027 | 0.021 ± 0.0017
3 | HCC70 BREAST | 0.991 ± 0.14 | 1.088 ± 0.0046 | 1.02 ± 0.078 | 0.96 ± 0.019 | 0.911 ± 0.047 | 0.893 ± 0.017 | 0.707 ± 0.0092 | 0.666 ± 0.068 | 1.04 ± 0.035 | 1.19 ± 0.054 | 1.13 ± 0.046 | 1.09 ± 0.063 | 0.758 ± 0.028 | 0.313 ± 0.076 | 0.0723 ± 0.014 | 0.042 ± 0.0052
4 | HCC78 LUNG | 0.848 ± 0.35 | 0.812 ± 0.13 | 0.946 ± 0.086 | 0.983 ± 0.23 | 0.638 ± 0.043 | 0.775 ± 0.084 | 0.532 ± 0.081 | 0.426 ± 0.18 | 0.91 ± 0.095 | 1.13 ± 0.26 | 0.993 ± 0.07 | 1.03 ± 0.17 | 0.887 ± 0.11 | 0.471 ± 0.29 | 0.0453 ± 0.011 | 0.0623 ± 0.013
5 | HCC1395 BREAST | 0.955 ± 0.095 | 0.901 ± 0.022 | 1 ± 0.15 | 0.905 ± 0.059 | 1.13 ± 0.068 | 1.05 ± 0.021 | 1.06 ± 0.11 | 1.01 ± 0.066 | 0.805 ± 0.1 | 0.961 ± 0.16 | 0.938 ± 0.13 | 0.975 ± 0.11 | 0.766 ± 0.071 | 0.68 ± 0.17 | 0.578 ± 0.088 | 0.521 ± 0.065
6 | HCC1954 BREAST | 0.376 ± 0.025 | 0.336 ± 0.0092 | 0.382 ± 0.014 | 0.316 ± 0.014 | 0.263 ± 0.011 | 0.258 ± 0.015 | 0.136 ± 0.016 | 0.117 ± 0.0071 | 0.772 ± 0.092 | 0.584 ± 0.042 | 0.927 ± 0.019 | 0.889 ± 0.035 | 0.571 ± 0.011 | 0.6015 ± 0.0014 | 0.1713 ± 0.0011 | 0.0897 ± 0.0074
7 | HCT15 LARGE INTESTINE | 0.868 ± 0.082 | 0.78 ± 0.053 | 0.775 ± 0.11 | 0.79 ± 0.064 | 0.852 ± 0.035 | 0.869 ± 0.068 | 0.843 ± 0.079 | 0.841 ± 0.076 | 0.997 ± 0.079 | 1.05 ± 0.034 | 1.07 ± 0.0081 | 1.05 ± 0.037 | 1 ± 0.063 | 1.05 ± 0.045 | 1 ± 0.031 | 0.951 ± 0.028
8 | HMT3552 BREAST | 0.832 ± 0.042 | 0.838 ± 0.058 | 0.804 ± 0.014 | 0.774 ± 0.029 | 0.828 ± 0.079 | 0.8597 ± 0.0078 | 0.696 ± 0.037 | 0.604 ± 0.015 | 0.92 | 1.07 | 1.02 | 0.936 | 0.999 | 1.03 | 0.176 | 0.097
9 | HOS BONE | 0.955 ± 0.029 | 0.923 ± 0.011 | 0.932 ± 0.031 | 0.915 ± 0.019 | 1.01 ± 0.012 | 1.01 ± 0.026 | 0.935 ± 0.011 | 0.914 ± 0.014 | 1.024 ± 0.0086 | 1.03 ± 0.038 | 1.04 ± 0.041 | 1.02 ± 0.016 | 0.908 ± 0.052 | 0.524 ± 0.05 | 0.0407 ± 0.0015 | 0.0373 ± 0.0015
10 | HOSMNG BONE | 0.92 ± 0.04 | 0.978 ± 0.014 | 1.003 ± 0.0067 | 1.01 ± 0.055 | 1.08 ± 0.12 | 1.11 ± 0.1 | 1.04 ± 0.025 | 1.11 ± 0.016 | 0.954 ± 0.099 | 0.99 ± 0.083 | 0.954 ± 0.052 | 0.943 ± 0.016 | 0.992 ± 0.025 | 0.975 ± 0.076 | 0.737 ± 0.017 | 0.15 ± 0.031
11 | HS578T BREAST | 0.851 ± 0.12 | 0.857 ± 0.1 | 0.873 ± 0.066 | 0.785 ± 0.038 | 1.04 ± 0.14 | 1 ± 0.11 | 0.918 ± 0.11 | 0.738 ± 0.14 | 0.986 ± 0.027 | 1.06 ± 0.057 | 0.946 ± 0.14 | 0.927 ± 0.037 | 0.788 ± 0.051 | 0.485 ± 0.049 | 0.162 ± 0.0082 | 0.174 ± 0.021
12 | HSSYII SYNOVIAL | 0.809 ± 0.039 | 0.794 ± 0.015 | 0.814 ± 0.053 | 0.855 ± 0.037 | 0.889 ± 0.033 | 0.868 ± 0.011 | 0.724 ± 0.031 | 0.631 ± 0.021 | 0.92 ± 0.0095 | 0.96 ± 0.063 | 0.885 ± 0.062 | 0.863 ± 0.014 | 0.135 ± 0.01 | 0.046 ± 0.0044 | 0.0388 ± 0.0032 | 0.0475 ± 0.0025
13 | HT1080 SOFT TISSUE | 1.02 ± 0.015 | 1.05 ± 0.03 | 0.9963 ± 0.0099 | 0.997 ± 0.0076 | 1.019 ± 0.0087 | 0.987 ± 0.031 | 0.982 ± 0.058 | 0.97 ± 0.038 | 0.977 ± 0.013 | 1.01 ± 0.03 | 0.987 ± 0.028 | 1.03 ± 0.025 | 0.879 ± 0.041 | 0.812 ± 0.013 | 0.153 ± 0.0023 | 0.122 ± 0.016
14 | HU09 BONE | 0.807 ± 0.14 | 0.891 ± 0.066 | 0.977 ± 0.058 | 0.904 ± 0.079 | 1.02 ± 0.086 | 1.02 ± 0.081 | 0.766 ± 0.033 | 0.478 ± 0.027 | 0.977 ± 0.039 | 1.02 ± 0.062 | 1.02 ± 0.058 | 0.975 ± 0.015 | 0.6343 ± 0.0057 | 0.372 ± 0.033 | 0.073 ± 0.0061 | 0.0617 ± 0.011
15 | HUO3N1 BONE | 0.949 ± 0.063 | 0.949 ± 0.015 | 0.965 ± 0.069 | 0.943 ± 0.069 | 1 ± 0.027 | 0.995 ± 0.02 | 0.808 ± 0.03 | 0.701 ± 0.022 | 1.01 ± 0.021 | 0.991 ± 0.062 | 1.02 ± 0.039 | 1.03 ± 0.023 | 0.975 ± 0.043 | 0.863 ± 0.041 | 0.504 ± 0.024 | 0.319 ± 0.04
16 | JIMT1 BREAST | 0.896 ± 0.02 | 0.904 ± 0.029 | 0.94 ± 0.029 | 0.911 ± 0.021 | 0.968 ± 0.021 | 0.897 ± 0.042 | 0.633 ± 0.041 | 0.541 ± 0.042 | 0.921 ± 0.046 | 0.941 ± 0.051 | 0.911 ± 0.023 | 0.9362 ± 0.0086 | 0.874 ± 0.037 | 0.927 ± 0.042 | 0.803 ± 0.011 | 0.424 ± 0.025
